Source: PubChem BioAssay AID248 (DTP/NCI, 2004)
Values joined by “and” are separate entries in the source; they are usually repeats but may differ in a detail not shown here. Identical values can stand only once. Toxic doses and inconclusive results are not listed. Cut-off read from the data, not from the text of the source: active = T/C of 150% or more; inactive = T/C below 125%. Square brackets hold non-standard residues; d marks the D form. Peptide text beside a SMILES is read from it. * marks the point of attachment. ξ: configuration not given here. Octanoyl = CCCCCCCC(=O)*; ξP = O=C(O)C1CCCN1

Test system: L1210 leukemia ip in BDF1 mice, survival T/C
Experiment: NCI In Vivo Anticancer Drug Screen. Data for tumor model L1210 Leukemia (intraperitoneal) in B6D2F1 (BDF1) mice
Conditions: endpoint: mean survival time, higher = longer survival
Outline: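 Read-out is survival time, reported as the treated-group measurement over the vehicle-control measurement.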

[1] = dose: 100.0 mg/kg/injection, schedule: Q04DX003 (ip), vehicle: Klucel (hydroxypropylcellulose) (HPC)
[2] = dose: 200.0 mg/kg/injection, schedule: Q04DX003 (ip), vehicle: Klucel (hydroxypropylcellulose) (HPC)
[3] = dose: 400.0 mg/kg/injection, schedule: Q04DX003 (ip), vehicle: Klucel (hydroxypropylcellulose) (HPC)
[4] = dose: 100.0 mg/kg/injection, schedule: Q01DX001 (ip), vehicle: carboxymethylcellulose (CMC)
[5] = dose: 200.0 mg/kg/injection, schedule: Q01DX001 (ip), vehicle: carboxymethylcellulose (CMC)
[6] = dose: 400.0 mg/kg/injection, schedule: Q01DX001 (ip), vehicle: carboxymethylcellulose (CMC)
[7] = dose: 100.0 mg/kg/injection, schedule: Q04DX002 (ip), vehicle: Klucel (hydroxypropylcellulose) (HPC)
[8] = dose: 200.0 mg/kg/injection, schedule: Q04DX002 (ip), vehicle: Klucel (hydroxypropylcellulose) (HPC)
[9] = dose: 400.0 mg/kg/injection, schedule: Q04DX002 (ip), vehicle: Klucel (hydroxypropylcellulose) (HPC)
[10] = dose: 100.0 mg/kg/injection, schedule: Q01DX009 (ip), vehicle: saline with Tween-80
[11] = dose: 200.0 mg/kg/injection, schedule: Q01DX009 (ip), vehicle: saline with Tween-80
[12] = dose: 400.0 mg/kg/injection, schedule: Q01DX009 (ip), vehicle: saline with Tween-80
[13] = dose: 100.0 mg/kg/injection, schedule: Q01DX009 (ip), vehicle: Klucel (hydroxypropylcellulose) (HPC)
[14] = dose: 200.0 mg/kg/injection, schedule: Q01DX009 (ip), vehicle: Klucel (hydroxypropylcellulose) (HPC)
[15] = dose: 400.0 mg/kg/injection, schedule: Q01DX009 (ip), vehicle: Klucel (hydroxypropylcellulose) (HPC)
[16] = dose: 100.0 mg/kg/injection, schedule: Q01DX001 (ip), vehicle: Klucel (hydroxypropylcellulose) (HPC)
[17] = dose: 200.0 mg/kg/injection, schedule: Q01DX001 (ip), vehicle: Klucel (hydroxypropylcellulose) (HPC)
[18] = dose: 400.0 mg/kg/injection, schedule: Q01DX001 (ip), vehicle: Klucel (hydroxypropylcellulose) (HPC)
[19] = dose: 100.0 mg/kg/injection, schedule: Q04DX003 (ip), vehicle: saline with Tween-80
[20] = dose: 200.0 mg/kg/injection, schedule: Q04DX003 (ip), vehicle: saline with Tween-80
[21] = dose: 400.0 mg/kg/injection, schedule: Q04DX003 (ip), vehicle: saline with Tween-80
[22] = dose: 100.0 mg/kg/injection, schedule: Q01DX001 (ip), vehicle: saline
[23] = dose: 200.0 mg/kg/injection, schedule: Q01DX001 (ip), vehicle: saline

Measured: T/C

Nc1cccc2c1C(=O)c1cccc(N)c1C2=O
inactive: [1] 101 % of control | [2] 96 % of control | [3] 96 % of control

Cc1nc2c(-c3ccccc3)nc(C)n2nc1C
inactive: dose: 100.0 mg/kg/injection, schedule: Q04DX002 (ip), vehicle: saline with Tween-80 111 % of control | dose: 200.0 mg/kg/injection, schedule: Q04DX002 (ip), vehicle: saline with Tween-80 108 % of control | dose: 400.0 mg/kg/injection, schedule: Q04DX002 (ip), vehicle: saline with Tween-80 92 % of control

Cc1ccc(-c2nnc3c4ccccc4ccn23)cc1
inactive: [4] 93 % of control | [5] 93 % of control | [6] 91 % of control

Cc1cc(NC(=O)NCCCCCCNC(=O)Nc2cc(C)on2)no1
inactive: dose: 100.0 mg/kg/injection, schedule: Q01DX009 (ip), vehicle: other 89 % of control | dose: 200.0 mg/kg/injection, schedule: Q01DX009 (ip), vehicle: other 111 % of control | dose: 400.0 mg/kg/injection, schedule: Q01DX009 (ip), vehicle: other 100 % of control

CCCc1nc2ccccc2c(=O)n1/N=C/c1ccc(OC)cc1
inactive: [7] 96 % of control | [8] 99 % of control | [9] 101 % of control

CCN(c1c(C)cc(C)c(N(CC(=O)O)S(=O)(=O)c2ccccc2)c1C)S(=O)(=O)c1ccccc1
inactive: [10] 101 % of control | dose: 100.0 mg/kg/injection, schedule: Q04DX003 (ip), vehicle: saline 94 % of control | [11] 97 % of control | dose: 200.0 mg/kg/injection, schedule: Q04DX003 (ip), vehicle: saline 100 % of control | [12] 95 % of control | dose: 400.0 mg/kg/injection, schedule: Q04DX003 (ip), vehicle: saline 103 % of control

COc1cc(Cl)ccc1NC(=O)Oc1ccc(OCc2ccccc2)cc1
inactive: [13] 94 % of control | [14] 94 % of control | [15] 97 % of control

CCCCCCCC(=O)N1CCCC1C(=O)NCC(=O)NCC(=O)O (stereo not drawn) (Octanoyl-[ξP]-Gly-Gly-OH)
inactive: [16] 115 % of control | [17] 95 % of control | [18] 95 % of control

Cc1cc(C)cc(NC(=O)c2ccccc2N)c1
inactive: [19] 96 % of control | [20] 91 % of control | [21] 93 % of control

O=C(c1cccnc1)N1CCCC1
inactive: [13] 113 % of control | [14] 109 % of control | [15] 98 % of control

CCOC(=O)CCCCCC(C(=O)OCC)c1nc2ccccc2[nH]c1=O (centres undefined)
inactive: [7] 99 % of control | [8] 101 % of control | [9] 86 % of control

COC(=O)CCCCCCCCC(C)c1ccc(C(C)=O)cc1 (centres undefined)
inactive: [10] 95 % of control | [19] 99 % of control | [11] 87 % of control | [20] 95 % of control | [12] 96 % of control | [21] 89 % of control

C1=CC2C1C1(Cc3ccccc3)N=NC2(Cc2ccccc2)C2C=CC21 (centres undefined)
inactive: [7] 97 % of control | [8] 94 % of control | [9] 87 % of control

O=C(Nc1cccc(C(F)(F)F)c1)Nc1ccc(Cl)cc1Cl
inactive: [16] 96 % of control | [13] 95 % of control and 108 % of control | [7] 95 % of control and 100 % of control | [1] 86 % of control | [17] 91 % of control | [14] 94 % of control and 104 % of control | [8] 100 % of control and 88 % of control | [2] 94 % of control | [18] 93 % of control | [15] 95 % of control and 97 % of control | [9] 98 % of control and 104 % of control | [3] 92 % of control

O=NN(CCCl)C(=O)C1CCCCC1
inactive: dose: 4.5 mg/kg/injection, schedule: Q01DX001 (ip), vehicle: carboxymethylcellulose (CMC) 110 % of control | dose: 9.0 mg/kg/injection, schedule: Q01DX001 (ip), vehicle: carboxymethylcellulose (CMC) 112 % of control | dose: 18.0 mg/kg/injection, schedule: Q01DX001 (ip), vehicle: carboxymethylcellulose (CMC) 113 % of control | dose: 26.0 mg/kg/injection, schedule: Q01DX001 (ip), vehicle: carboxymethylcellulose (CMC) 112 % of control | dose: 40.0 mg/kg/injection, schedule: Q01DX001 (ip), vehicle: carboxymethylcellulose (CMC) 108 % of control | dose: 60.0 mg/kg/injection, schedule: Q01DX001 (ip), vehicle: carboxymethylcellulose (CMC) 110 % of control | dose: 93.0 mg/kg/injection, schedule: Q01DX001 (ip), vehicle: carboxymethylcellulose (CMC) 113 % of control | dose: 187.0 mg/kg/injection, schedule: Q01DX001 (ip), vehicle: carboxymethylcellulose (CMC) 116 % of control

COc1cc(-c2nc(-c3ccc(N=Cc4ccc(N(CCOS(C)(=O)=O)CCOS(C)(=O)=O)cc4C)cc3)cs2)cc(OC)c1OC
inactive: dose: 25.0 mg/kg/injection, schedule: Q04DX003 (ip), vehicle: saline with Tween-80 102 % of control | dose: 50.0 mg/kg/injection, schedule: Q04DX003 (ip), vehicle: saline with Tween-80 102 % of control | dose: 66.0 mg/kg/injection, schedule: Q04DX003 (ip), vehicle: saline with Tween-80 115 % of control and 120 % of control | dose: 150.0 mg/kg/injection, schedule: Q04DX003 (ip), vehicle: saline with Tween-80 96 % of control and 89 % of control | [20] 110 % of control

O=c1nc2n(c(=O)[nH]1)CCN2
inactive: dose: 50.0 mg/kg/injection, schedule: Q01DX001 (ip), vehicle: carboxymethylcellulose (CMC) 101 % of control | [4] 101 % of control | [5] 104 % of control | [6] 106 % of control

O=c1c2cn[nH]c2nc2ccccn12
inactive: [22] 96 % of control | [23] 94 % of control | dose: 400.0 mg/kg/injection, schedule: Q01DX001 (ip), vehicle: saline 94 % of control

CC(C)(C)S(=O)(=O)c1nc2ccccc2s1
inactive: [1] 93 % of control | [2] 107 % of control | [3] 90 % of control

CC12CCC(O)CC1CCC1C2CCC2(C)C(C(=O)CO)CCC12 (centres undefined)
inactive: dose: 100.0 mg/kg/injection, schedule: Q01DX001 (sc), vehicle: steriod suspending solution 103 % of control | dose: 200.0 mg/kg/injection, schedule: Q01DX001 (sc), vehicle: steriod suspending solution 103 % of control | dose: 400.0 mg/kg/injection, schedule: Q01DX001 (sc), vehicle: steriod suspending solution 101 % of control

Cc1ccc(S(=O)(=O)CC(O)(/C=C/c2ccccc2)c2ccccc2)cc1 (centres undefined)
inactive: dose: 100.0 mg/kg/injection, schedule: Q01DX001 (ip), vehicle: acetone 98 % of control | dose: 200.0 mg/kg/injection, schedule: Q01DX001 (ip), vehicle: acetone 93 % of control | dose: 400.0 mg/kg/injection, schedule: Q01DX001 (ip), vehicle: acetone 89 % of control

c1ccc2c(c1)[nH]c1c[n+]3c(c[n+]12)[nH]c1ccccc13
inactive: dose: 50.0 mg/kg/injection, schedule: Q01DX001 (ip), vehicle: saline 107 % of control | [22] 98 % of control | [23] 113 % of control
